Reference: paper PMC4700456, “Receptor for detection of a Type II sex pheromone in the winter moth Operophtera brumata” (Scientific Reports, 2016)

Target: T1, ObruOR1 (co-expressed with Obru\Orco) (Operophtera brumata, UniProt A0A140YWR3)
T1 construct: full-length, ObruOR1 430 aa, Obru\Orco 472 aa; pCS2+ vector, cRNAs co-injected in Xenopus laevis oocytes; with Odorant receptor co-receptor
T1 sequence (A0A140YWR3 1-430): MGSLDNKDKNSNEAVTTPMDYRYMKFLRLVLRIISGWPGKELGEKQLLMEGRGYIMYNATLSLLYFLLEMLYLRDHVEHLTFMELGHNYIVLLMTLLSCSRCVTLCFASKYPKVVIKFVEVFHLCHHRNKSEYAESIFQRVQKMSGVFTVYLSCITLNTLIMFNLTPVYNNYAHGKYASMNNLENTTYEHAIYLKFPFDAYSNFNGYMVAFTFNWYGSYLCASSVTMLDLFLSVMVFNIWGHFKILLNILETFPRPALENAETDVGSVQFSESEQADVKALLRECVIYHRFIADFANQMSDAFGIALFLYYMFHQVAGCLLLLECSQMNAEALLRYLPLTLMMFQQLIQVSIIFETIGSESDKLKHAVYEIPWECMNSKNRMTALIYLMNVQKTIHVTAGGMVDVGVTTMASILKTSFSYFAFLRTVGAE
T1 sequence (A0A140YWR4 1-472 partner): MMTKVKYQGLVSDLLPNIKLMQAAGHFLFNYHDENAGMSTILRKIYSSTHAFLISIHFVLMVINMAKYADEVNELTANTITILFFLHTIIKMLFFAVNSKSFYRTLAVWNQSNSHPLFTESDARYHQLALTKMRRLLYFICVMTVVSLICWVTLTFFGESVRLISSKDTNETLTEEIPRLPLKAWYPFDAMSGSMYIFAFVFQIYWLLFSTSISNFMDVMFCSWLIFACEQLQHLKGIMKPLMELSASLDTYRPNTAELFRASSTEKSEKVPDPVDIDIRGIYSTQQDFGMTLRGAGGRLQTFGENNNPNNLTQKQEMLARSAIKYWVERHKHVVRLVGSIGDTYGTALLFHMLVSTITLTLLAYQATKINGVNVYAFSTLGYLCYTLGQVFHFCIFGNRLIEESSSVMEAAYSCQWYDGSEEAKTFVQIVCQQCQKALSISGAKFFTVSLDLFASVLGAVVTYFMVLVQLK
Assay: two-electrode voltage clamp, Xenopus oocytes
Type: cell-based
Settings: agonist, holding potential -80 mV, Ringer's buffer, dose-response

- threshold dose: 10 nM
Compound: C=C/C=C\C/C=C\C/C=C\CCCCCCCCC [1,3Z,6Z,9Z-19:H, (3Z,6Z,9Z)-1,3,6,9-nonadecatetraene]
